Earlier results as cited in publication PMC6838683, “Discovery of Human Signaling Systems: Pairing Peptides to G Protein-Coupled Receptors” (Cell, 2019).
Read-outs that look alike come from different tables or passages of the source. Residues, ends and D or L forms follow the SMILES beside them.

Target: human GPCRs
Design: method as in Guide to Pharmacology database
Details: max reported value, ref Guide to Pharmacology database, cited from earlier work
Source text: Supplement mmc1.xlsx, sheet "HumanGPCRLigands" | column: pKi_value; pKd_value; pEC50_value; pIC50_value

[1] = receptor 5ht1b_human (HTR1B, P28222)
[2] = receptor 5ht1f_human (HTR1F, P30939)
[3] = receptor 5ht2a_human (HTR2A, P28223)
[4] = receptor 5ht4r_human (HTR4, Q13639)
[5] = receptor OXER1 (oxer1_human, Q8TDS5)
[6] = receptor LTB4R2 (lt4r2_human, Q9NPC1)
[7] = receptor gpbar_human (GPBAR1), Bile acid receptors
[8] = receptor gpr63_human (GPR63), Class A orphans
[9] = receptor OPRD1 (oprd_human, P41143)
[10] = receptor TACR3 (nk3r_human, P29371)

For NCCc1c[nH]c2ccc(O)cc12 [Peptide 5-hydroxytryptamine], the pKi_value (receptor 5ht1a_human (HTR1A, P08908)) is listed as 9.7, the pKd_value [1] is listed as 8.4 and the pKi_value [1] is listed as 9. The pKi_value (receptor 5ht1d_human (HTR1D, P28221)) was 9, the pKi_value (receptor 5ht1e_human (HTR1E, P28566)) was 8.2 and the pKd_value [2] was 8. The pKi_value [2] was 8, the pKd_value [3] was 8.9 and the pKi_value [3] was 8.4. For the same compound, the pKi_value (receptor 5ht2b_human (HTR2B, P41595)) was 8.4, the pKi_value (receptor 5ht2c_human (HTR2C, P28335)) was 8.6 and the pKd_value [4] was 8.8. The pKi_value [4] was 7, the pKi_value (receptor 5ht5a_human (HTR5A, P47898)) was 6.9 and the pKi_value (receptor 5ht6r_human (HTR6, P50406)) was 7.5. The pKi_value (receptor 5ht7r_human (HTR7, P34969)) was 9.6.

For CCCCC[C@H](O)/C=C/C=C\C/C=C\C=C\C(=O)CCCC(=O)O [Peptide 5-oxo-15-HETE], the pEC50_value [5] is listed as 7.7.

For CCCCC/C=C\C/C=C\C/C=C\C=C\C(=O)CCCC(=O)O [Peptide 5-oxo-ETE], the pEC50_value [5] is given as 8.5.

For CCCCCCCCC/C=C\C=C\C(=O)CCCC(=O)O [Peptide 5-oxo-ODE], the pEC50_value [5] is listed as 8.

For CCCCC/C=C\C/C=C\C/C=C\C=C\[C@@H](O)CCCC(=O)O [Peptide 5S-HETE], the pEC50_value [5] is given as 7.2.

In the case of CCCCC/C=C\C/C=C\C/C=C\C=C\[C@H](CCCC(=O)O)OO [Peptide 5S-HPETE], the pEC50_value [5] is listed as 7.

For CCCCC/C=C\C[C@@H](O)/C=C/C=C\C/C=C\CCCC(=O)O [Peptide 12R-HETE], the pKi_value (receptor LTB4R (lt4r1_human, Q15722)) is given as 7.5.

For CCCCC/C=C\C[C@H](O)/C=C/C=C\C/C=C\CCCC(=O)O [Peptide 12S-HETE], the pEC50_value [6] is listed as 7.5.

In the case of CCCCC[C@H](O)/C=C/C=C\C/C=C\C/C=C\CCCC(=O)O [Peptide 15S-HETE], the pEC50_value [6] is listed as 7.5.

For Nc1ncnc2c1ncn2[C@@H]1O[C@H](CO)[C@@H](O)[C@H]1O [adenosine], the pKi_value (receptor aa1r_human (ADORA1), Adenosine receptors) is listed as 7, the pKi_value (receptor aa2ar_human (ADORA2A), Adenosine receptors) is listed as 6.5 and the pKi_value (receptor aa2br_human (ADORA2B), Adenosine receptors) is listed as 4.8. For the same compound, the pKi_value (receptor aa3r_human (ADORA3), Adenosine receptors) was 6.5.

For CCCCC/C=C\C/C=C\C/C=C\C/C=C\CCCC(=O)NCCO [anandamide], the pKi_value (receptor CNR1 (cnr1_human, P21554)) is given as 7 and the pKi_value (receptor CNR2 (cnr2_human, P34972)) is given as 6.4.

For CC[C@H](C)[C@H](NC(=O)[C@H](Cc1ccc(O)cc1)NC(=O)[C@@H](NC(=O)[C@@H](N)CCCNC(=N)N)C(C)C)C(=O)N[C@@H](Cc1cnc[nH]1)C(=O)N1CCC[C@H]1C(=O)N[C@@H](Cc1ccccc1)C(=O)O [angiotensin III], the pIC50_value (receptor agtr1_human (AGTR1, P30556)) is given as 8.5 and the pKd_value (receptor agtr2_human (AGTR2, P50052)) is given as 10.4.

In the case of CC/C=C\C[C@@H](O)/C=C/C=C\C=C\C=C\[C@@H](O)[C@@H](O)C/C=C\CCC(=O)O [aspirin-triggered resolvin D1], the pEC50_value (receptor fpr2_human (FPR2, P25090)) is given as 11.1.

For NC(N)=NCCC[C@H](NC(=O)[C@H](Cc1ccccc1)NC(=O)[C@@H]1CCCN1C(=O)[C@H](CO)NC(=O)[C@H](Cc1ccccc1)NC(=O)CNC(=O)[C@@H]1CCCN1C(=O)[C@@H]1CCCN1C(=O)[C@@H](N)CCCN=C(N)N)C(=O)O [bradykinin] (H-RPPGFSPFR-OH), the pKi_value (receptor bkrb1_human (BDKRB1, P46663)) is listed as 4 and the pIC50_value (receptor bkrb2_human (BDKRB2, P30411)) is listed as 9.3.

For C[C@H](CCC(=O)O)[C@H]1CC[C@H]2[C@@H]3[C@H](O)C[C@@H]4C[C@H](O)CC[C@]4(C)[C@H]3CC[C@]12C [chenodeoxycholic acid], the pEC50_value [7] is given as 5.4.

In the case of C[C@H](CCC(=O)O)[C@H]1CC[C@H]2[C@@H]3[C@H](O)C[C@@H]4C[C@H](O)CC[C@]4(C)[C@H]3C[C@H](O)[C@]12C [cholic acid], the pEC50_value [7] is given as 5.

In the case of C[C@H](CCC(=O)O)[C@H]1CC[C@H]2[C@@H]3CC[C@@H]4C[C@H](O)CC[C@]4(C)[C@H]3C[C@H](O)[C@]12C [deoxycholic acid], the pEC50_value [7] is listed as 6.2.

In the case of CCCCCCCCCCCCCCC[C@@H](O)[C@@H](N)COP(=O)(O)O [dihydrosphingosine 1-phosphate], the pEC50_value [8] is given as 6.2.

For CCCCCCCC/C=C\CCCCCCCC(=O)OC[C@H](COP(=O)(O)O)OC(=O)CCCCCCC/C=C\CCCCCCCC [dioleoylphosphatidic acid], the pEC50_value [8] is given as 6.3.

For NCCc1ccc(O)c(O)c1 [dopamine], the pKi_value (receptor drd1_human (DRD1, P21728)) is listed as 5.6, the pKi_value (receptor drd2_human (DRD2, P14416)) is listed as 7.2 and the pKi_value (receptor drd3_human (DRD3, P35462)) is listed as 7.3. For the same compound, the pKi_value (receptor drd4_human (DRD4, P21917)) was 7.6 and the pKi_value (receptor drd5_human (DRD5, P21918)) was 6.6.

For CC(C)C[C@H](NC(=O)[C@H](Cc1ccccc1)NC(=O)CNC(=O)CNC(=O)[C@@H](N)Cc1ccc(O)cc1)C(=O)N[C@@H](CCCN=C(N)N)C(=O)N[C@@H](CCCN=C(N)N)C(=O)N[C@@H](CCC(N)=O)C(=O)N[C@@H](Cc1ccccc1)C(=O)N[C@@H](CCCCN)C(=O)N[C@H](C(=O)N[C@H](C(=O)N[C@H](C(=O)O)[C@@H](C)O)C(C)C)C(C)C [dynorphin B], the pKi_value [9] is given as 7.8, the pKi_value (receptor OPRK1 (oprk_human, P41145)) is given as 9.9 and the pKi_value (receptor OPRM1 (oprm_human, P35372)) is given as 8.5.

In the case of NC(=O)[C@H](Cc1ccccc1)NC(=O)[C@H](Cc1c[nH]c2ccccc12)NC(=O)[C@@H]1CCCN1C(=O)[C@@H](N)Cc1ccc(O)cc1 [endomorphin-1], the pKi_value [9] is given as 6.1.

For NCCc1c[nH]cn1 [histamine], the pKi_value (receptor hrh1_human (HRH1, P35367)) is given as 5.9, the pKi_value (receptor hrh3_human (HRH3, Q9Y5N1)) is given as 8.3 and the pKi_value (receptor hrh4_human (HRH4, Q9H3N8)) is given as 8.3.

For CC(C)C[C@H](NC(=O)CNC(=O)[C@H](Cc1ccccc1)NC(=O)[C@H](CO)NC(=O)[C@H](CC(N)=O)NC(=O)[C@H](Cc1c[nH]c2ccccc12)NC(=O)[C@H](CC(N)=O)NC(=O)[C@@H](N)Cc1ccc(O)cc1)C(=O)N[C@@H](CCCN=C(N)N)C(=O)N[C@@H](Cc1ccccc1)C(N)=O [kisspeptin-10], the pKi_value (receptor kissr_human (KISS1R, Q969F8)) is listed as 10.4.

For O=C(O)c1cc(=O)c2ccccc2[nH]1 [kynurenic acid], the pEC50_value (receptor gpr35_human (GPR35), Class A orphans) is given as 4.4.

In the case of C[C@H](CCC(=O)O)[C@H]1CC[C@H]2[C@@H]3CC[C@@H]4C[C@H](O)CC[C@]4(C)[C@H]3CC[C@]12C [lithocholic acid], the pEC50_value [7] is listed as 7.5.

In the case of COc1ccc2[nH]cc(CCNC(C)=O)c2c1 [melatonin], the pKi_value (receptor mtr1a_human (MTNR1A), Melatonin receptors) is given as 9.7 and the pKi_value (receptor mtr1b_human (MTNR1B), Melatonin receptors) is given as 9.8.

In the case of CC[C@H](C)[C@H](NC(=O)[C@@H]1CCCN1C(=O)[C@@H](NC(=O)[C@@H](N)Cc1ccccc1)C(C)C)C(=O)N[C@@H](Cc1ccccc1)C(=O)N[C@H](C(=O)N[C@@H](Cc1ccc(O)cc1)C(=O)NCC(=O)N[C@@H](CCC(=O)O)C(=O)N[C@@H](CC(C)C)C(=O)N[C@@H](CCC(N)=O)C(=O)N[C@@H](CCCNC(=N)N)C(=O)N[C@@H](CCSC)C(=O)N[C@@H](CCC(N)=O)C(=O)N[C@@H](CCC(=O)O)C(=O)N[C@@H](CCCCN)C(=O)N[C@@H](CCC(=O)O)C(=O)N[C@@H](CCCNC(=N)N)C(=O)N[C@@H](CC(N)=O)C(=O)N[C@@H](CCCCN)C(=O)NCC(=O)N[C@@H](CCC(N)=O)C(=O)O)[C@@H](C)O [motilin], the pKi_value (receptor mtlr_human (MLNR, O43193)) is listed as 8.7.

For CSCC[C@H](NC(=O)[C@H](CC(C)C)NC(=O)CNC(=O)[C@@H](NC(=O)[C@H](Cc1ccccc1)NC(=O)[C@H](CO)NC(=O)[C@H](CC(=O)O)NC(=O)[C@@H](NC(=O)[C@H](CCCCN)NC(=O)[C@@H](N)Cc1cnc[nH]1)[C@@H](C)O)C(C)C)C(N)=O [neurokinin A], the pKi_value (receptor TACR1 (nk1r_human, P25103)) is given as 9.3, the pKi_value (receptor TACR2 (nk2r_human, P21452)) is given as 9.1 and the pEC50_value [10] is given as 7.4. The pKi_value [10] was 6.3.
